Results published in patent publication US20200054563A1, “PHARMACEUTICAL COMPOSITION FOR IN VIVO DELIVERY, METHOD OF PREPARATION OF A SUBSTANTIALLY WATER-INSOLUBLE PHARMACOLOGICALLY ACTIVE AGENT FOR IN VIVO DELIVERY, AND METHOD OF TREATING DISEASE” (ZY Therapeutics Inc., priority 2017, published 2020).

Test: Stability of the drug substance during the homogenization process (HPLC spectra)
Type: physicochemical
Conditions: nanosuspension prepared at pH 7.2 without pH change; additional peak in HPLC spectra (FIG. 2C), in some cases
Protocol: The formulation was filtered through a 0.22 μm membrane for sterilization. The Paclitaxel content before and after filtration was measured by HPLC. […] The split peak in HPLC may indicate the degradation of the drug during the process.

stability of the drug substance during the process: not stable during the process
Compound: CC(=O)O[C@H]1C(=O)[C@@]2(C)[C@H]([C@H](OC(=O)c3ccccc3)[C@]3(O)C[C@H](OC(=O)[C@H](O)[C@@H](NC(=O)c4ccccc4)c4ccccc4)C(C)=C1C3(C)C)[C@]1(OC(C)=O)CO[C@@H]1C[C@@H]2O [Paclitaxel]
